Assay results as given in the NIST ThermoML archive (doi:10.1016/j.fluid.2005.07.008).
Where “and” joins values, the source holds several entries; their conditions need not be identical. Equal values may be shown once. Numbers after ± are expanded uncertainties.

Conditions: Liquid

c1ccccc1 [benzene]
vapor or sublimation pressure (298.15 K): 12.7 ± 0.44 kPa
vapor or sublimation pressure (303.15 K): 15.92 ± 0.52 kPa
vapor or sublimation pressure (308.15 K): 19.66 ± 0.61 kPa
vapor or sublimation pressure (313.15 K): 24.33 ± 0.73 kPa

CO [methanol]
vapor or sublimation pressure (298.15 K): 16.97 ± 0.071 kPa and 16.96 ± 0.55 kPa
vapor or sublimation pressure (303.15 K): 21.88 ± 0.086 kPa and 21.88 ± 0.67 kPa
vapor or sublimation pressure (308.15 K): 27.96 ± 0.11 kPa and 27.96 ± 0.82 kPa
vapor or sublimation pressure (313.15 K): 35.44 ± 0.13 kPa and 35.45 ± 1 kPa
vapor or sublimation pressure (318.15 K): 44.54 ± 0.16 kPa
vapor or sublimation pressure (323.15 K): 55.58 ± 0.19 kPa

CCO [ethanol]
vapor or sublimation pressure (298.15 K): 7.876 ± 0.32 kPa
vapor or sublimation pressure (303.15 K): 10.47 ± 0.38 kPa
vapor or sublimation pressure (308.15 K): 13.77 ± 0.47 kPa
vapor or sublimation pressure (313.15 K): 17.93 ± 0.57 kPa

CCCO [propan-1-ol]
vapor or sublimation pressure (298.15 K): 2.786 ± 0.19 kPa
vapor or sublimation pressure (303.15 K): 3.826 ± 0.22 kPa
vapor or sublimation pressure (308.15 K): 5.199 ± 0.25 kPa
vapor or sublimation pressure (313.15 K): 6.986 ± 0.3 kPa
